Tested on: HepG-2 cells
Test: mRNA sequencing, differential expression genes
Assay type: cell-based, human
Procedure: After culturing HepG-2 cells in DMEM medium with HG for 72 hours followed by treating with 20 μM CA for 0, 3, 6, 12, and 24 hours, genomic DNA from 5×10^7 cells were extracted using QIAamp® DNA Mini Kit (QIAGEN, Hilden, Germany). Each sample, 6 μg, was sent to CD Genomics Co., Ltd (New York, USA) for analysis of WGBS. Total RNA was isolated using the Promega SV total RNA isolation system (Madison, WI, USA) with DNase treatment. Each sample, 2 μg, were sent to CD Genomics Co., Ltd (New York, USA) for analysis of RNA sequencing. The same samples, 2 μg, was used for the first-strand cDNA synthesis as recommended by the manufacturer (Invitrogen, Carlsbad, CA). RT-qPCR was performed using SYBR Green as the indicator on ABI 7500 Fast Real-Time PCR System (Applied Biosystems, Foster City, CA). Amplifications of j-actin or GAPDH were used as internal controls. Relative messenger RNA (mRNA) expression was quantified with the comparative cycle threshold (Ct) method using a sutiable primer set and was expressed as 2-ΔΔCt as described previously.
Total RNA was extracted and purified from HepG-2 cells using SV total RNA isolation system (Promega, Madison, WI). Messenger RNA was purified from total RNA using poly-T oligo-attached magnetic beads. After fragmentation, the first strand cDNA was synthesized using random hexamer primers, followed by the second strand cDNA synthesis using either dUTP for directional library or dTTP for non-directional library. The library was checked with Qubit and real-time PCR for quantification and bioanalyzer for size distribution detection. Quantified libraries will be pooled and sequenced on Illumina® platforms, according to effective library concentration and data amount. Raw data (raw reads) of fastq format were first processed through in-house perl scripts. In this step, clean data (clean reads) were obtained by removing reads containing adapter, reads containing ploy-N and low-quality reads from raw data. At the same time, Q20, Q30 and GC content of the clean data were calculated. All the downstream analyses were based on clean data with high quality. The clean data were aligned to reference genome (GRCh37) using Hisat2 v2.0.5 software. Differential expression genes (DEGs) were performed using the DESeq2 R package (1.20.0). DAVID software (website located at david.ncifcrf.gov/) was used to test the statistical enrichment of DMR related genes in the GO and KEGG pathways.

CC(CCC[C@@H](C)[C@H]1CC[C@H]2[C@@H]3CC=C4C[C@@H](O)CC[C@]4(C)[C@H]3CC[C@]12C)C(=O)O (stereo partly drawn) [CA, 3β-hydroxy-5-cholestenoic acid]
Fold Change ABCF1 (down regulated gene) (20 μM CA, 6 hours): −1.35 fold | Fold Change ACTA1 (up regulated gene) (20 μM CA, 6 hours): 1.32 fold | Fold Change ACTN4 (up regulated gene) (20 μM CA, 6 hours): 3.26 fold | Fold Change ANGPTL8 (down regulated gene) (20 μM CA, 6 hours): −1.77 fold | Fold Change ARHGAP17 (up regulated gene) (20 μM CA, 6 hours): 2.50 fold | Fold Change ATG16L1 (down regulated gene) (20 μM CA, 6 hours): −1.32 fold | Fold Change C2 (down regulated gene) (20 μM CA, 6 hours): −1.14 fold | Fold Change C5orf51 (down regulated gene) (20 μM CA, 6 hours): −1.06 fold | Fold Change CD99 (up regulated gene) (20 μM CA, 6 hours): 3.60 fold | Fold Change COG5 (down regulated gene) (20 μM CA, 6 hours): −1.44 fold | Fold Change CPSF1 (down regulated gene) (20 μM CA, 6 hours): −4.45 fold | Fold Change CUTA (up regulated gene) (20 μM CA, 6 hours): 1.76 fold | Fold Change CYP1A1 (up regulated gene) (20 μM CA, 6 hours): 1.97 fold | Fold Change CYP51A1 (down regulated gene) (20 μM CA, 6 hours): −1.25 fold | Fold Change DCAF11 (down regulated gene) (20 μM CA, 6 hours): −1.74 fold | Fold Change DLG5 (up regulated gene) (20 μM CA, 6 hours): 1.44 fold | Fold Change DNHD1 (down regulated gene) (20 μM CA, 6 hours): −1.21 fold | Fold Change EEF1A1P13 (up regulated gene) (20 μM CA, 6 hours): 2.82 fold | Fold Change EEF1B2 (up regulated gene) (20 μM CA, 6 hours): 1.29 fold | Fold Change EHMT2 (up regulated gene) (20 μM CA, 6 hours): 1.16 fold | Fold Change FBL (down regulated gene) (20 μM CA, 6 hours): −1.87 fold | Fold Change FDFT1 (down regulated gene) (20 μM CA, 6 hours): −1.30 fold | Fold Change FLII (up regulated gene) (20 μM CA, 6 hours): 2.04 fold | Fold Change FST (up regulated gene) (20 μM CA, 6 hours): 1.25 fold | Fold Change FZD1 (up regulated gene) (20 μM CA, 6 hours): 1.06 fold | Fold Change GBA (up regulated gene) (20 μM CA, 6 hours): 2.25 fold | Fold Change GBP1 (up regulated gene) (20 μM CA, 6 hours): 1.37 fold | Fold Change GFUS (down regulated gene) (20 μM CA, 6 hours): −2.73 fold | Fold Change GMPR2 (up regulated gene) (20 μM CA, 6 hours): 3.88 fold | Fold Change GNL1 (up regulated gene) (20 μM CA, 6 hours): 1.59 fold | Fold Change GTF2H1 (up regulated gene) (20 μM CA, 6 hours): 1.85 fold | Fold Change GTPBP6 (down regulated gene) (20 μM CA, 6 hours): −2.08 fold | Fold Change HMGCR (down regulated gene) (20 μM CA, 6 hours): −1.55 fold | Fold Change HMGCS1 (down regulated gene) (20 μM CA, 6 hours): −2.12 fold | Fold Change HSD17B7 (down regulated gene) (20 μM CA, 6 hours): −1.05 fold | Fold Change HSPA1A (up regulated gene) (20 μM CA, 6 hours): 1.22 fold | Fold Change HSPA1B (up regulated gene) (20 μM CA, 6 hours): 1.16 fold | Fold Change IBTK (down regulated gene) (20 μM CA, 6 hours): −2.44 fold | Fold Change ID3 (down regulated gene) (20 μM CA, 6 hours): −2.65 fold | Fold Change IDI1 (down regulated gene) (20 μM CA, 6 hours): −1.86 fold | Fold Change INPP5K (up regulated gene) (20 μM CA, 6 hours): 1.04 fold | Fold Change IPO4 (down regulated gene) (20 μM CA, 6 hours): −1.51 fold | Fold Change IRF9 (up regulated gene) (20 μM CA, 6 hours): 1.42 fold | Fold Change LDLR (down regulated gene) (20 μM CA, 6 hours): −1.46 fold | Fold Change LFNG (up regulated gene) (20 μM CA, 6 hours): 1.02 fold | Fold Change LINC02119 (down regulated gene) (20 μM CA, 6 hours): −1.39 fold | Fold Change LOC729973 (down regulated gene) (20 μM CA, 6 hours): −1.08 fold | Fold Change LOC107985276 (down regulated gene) (20 μM CA, 6 hours): −1.32 fold | Fold Change LOC112268009 (up regulated gene) (20 μM CA, 6 hours): 1.19 fold | Fold Change LPCAT1 (down regulated gene) (20 μM CA, 6 hours): −1.43 fold | Fold Change MCRIP1 (up regulated gene) (20 μM CA, 6 hours): 2.17 fold | Fold Change MINCR (up regulated gene) (20 μM CA, 6 hours): 1.24 fold | Fold Change MSMO1 (down regulated gene) (20 μM CA, 6 hours): −2.30 fold | Fold Change MT1E (up regulated gene) (20 μM CA, 6 hours): 1.81 fold | Fold Change MT1F (up regulated gene) (20 μM CA, 6 hours): 2.51 fold | Fold Change MT1G (up regulated gene) (20 μM CA, 6 hours): 2.43 fold | Fold Change MT1X (up regulated gene) (20 μM CA, 6 hours): 2.15 fold | Fold Change MT2A (up regulated gene) (20 μM CA, 6 hours): 1.44 fold | Fold Change MTCH2 (down regulated gene) (20 μM CA, 6 hours): −2.50 fold | Fold Change MTMR11 (up regulated gene) (20 μM CA, 6 hours): 1.48 fold | Fold Change MVD (down regulated gene) (20 μM CA, 6 hours): −1.20 fold | Fold Change MVK (down regulated gene) (20 μM CA, 6 hours): −1.57 fold | Fold Change MYEOV (down regulated gene) (20 μM CA, 6 hours): −1.08 fold | Fold Change NDUFS1 (up regulated gene) (20 μM CA, 6 hours): 1.45 fold | Fold Change NEK10 (up regulated gene) (20 μM CA, 6 hours): 1.06 fold | Fold Change NEU4 (down regulated gene) (20 μM CA, 6 hours): −1.99 fold | Fold Change NOP9 (down regulated gene) (20 μM CA, 6 hours): −2.89 fold | Fold Change NPIPA2 (up regulated gene) (20 μM CA, 6 hours): 1.32 fold | Fold Change NUP160 (down regulated gene) (20 μM CA, 6 hours): −1.36 fold | Fold Change PAK1 (down regulated gene) (20 μM CA, 6 hours): −1.14 fold | Fold Change PAK1IP1 (down regulated gene) (20 μM CA, 6 hours): −3.71 fold | Fold Change PALLD (up regulated gene) (20 μM CA, 6 hours): 1.02 fold | Fold Change PCSK9 (down regulated gene) (20 μM CA, 6 hours): −1.08 fold | Fold Change PFKFB4 (down regulated gene) (20 μM CA, 6 hours): −1.30 fold | Fold Change PHF1 (up regulated gene) (20 μM CA, 6 hours): 1.42 fold | Fold Change PNPLA3 (down regulated gene) (20 μM CA, 6 hours): −1.42 fold | Fold Change POLR3E (down regulated gene) (20 μM CA, 6 hours): −1.12 fold | Fold Change PRPF31 (up regulated gene) (20 μM CA, 6 hours): 1.38 fold | Fold Change PRSS8 (down regulated gene) (20 μM CA, 6 hours): −1.46 fold | Fold Change PSMB3 (down regulated gene) (20 μM CA, 6 hours): −4.67 fold | Fold Change PSME2 (up regulated gene) (20 μM CA, 6 hours): 2.33 fold | Fold Change PTEN (down regulated gene) (20 μM CA, 6 hours): −1.64 fold | Fold Change PTGDR2 (up regulated gene) (20 μM CA, 6 hours): 1.58 fold | Fold Change PUF60 (down regulated gene) (20 μM CA, 6 hours): −2.01 fold | Fold Change RBFOX2 (down regulated gene) (20 μM CA, 6 hours): −1.14 fold | Fold Change RCBTB2 (up regulated gene) (20 μM CA, 6 hours): 1.18 fold | Fold Change RDH11 (down regulated gene) (20 μM CA, 6 hours): −1.06 fold | Fold Change RN7SK (down regulated gene) (20 μM CA, 6 hours): −1.58 fold | Fold Change RNF187 (up regulated gene) (20 μM CA, 6 hours): 1.25 fold | Fold Change RPS9 (down regulated gene) (20 μM CA, 6 hours): −1.14 fold | Fold Change RPS14P1 (up regulated gene) (20 μM CA, 6 hours): 1.50 fold | Fold Change RPS17 (up regulated gene) (20 μM CA, 6 hours): 3.79 fold | Fold Change RRN3 (down regulated gene) (20 μM CA, 6 hours): −1.05 fold | Fold Change RUSC1-AS1 (down regulated gene) (20 μM CA, 6 hours): −1.37 fold | Fold Change SBNO2 (up regulated gene) (20 μM CA, 6 hours): 1.13 fold | Fold Change SERTAD1 (up regulated gene) (20 μM CA, 6 hours): 1.06 fold | Fold Change SGK1 (up regulated gene) (20 μM CA, 6 hours): 1.03 fold | Fold Change SLC39A7 (up regulated gene) (20 μM CA, 6 hours): 2.59 fold | Fold Change SLC39A10 (down regulated gene) (20 μM CA, 6 hours): −1.10 fold | Fold Change SNHG32 (down regulated gene) (20 μM CA, 6 hours): −1.62 fold | Fold Change SPC25 (down regulated gene) (20 μM CA, 6 hours): −1.51 fold | Fold Change SPSB2 (up regulated gene) (20 μM CA, 6 hours): 1.18 fold | Fold Change SQLE (down regulated gene) (20 μM CA, 6 hours): −1.73 fold | Fold Change SQSTM1 (down regulated gene) (20 μM CA, 6 hours): −1.29 fold | Fold Change STARD4 (down regulated gene) (20 μM CA, 6 hours): −1.26 fold | Fold Change STAT5A (up regulated gene) (20 μM CA, 6 hours): 1.09 fold | Fold Change SYBU (up regulated gene) (20 μM CA, 6 hours): 1.09 fold | Fold Change SYNPO (up regulated gene) (20 μM CA, 6 hours): 1.14 fold | Fold Change TBCE (down regulated gene) (20 μM CA, 6 hours): −1.67 fold | Fold Change TINF2 (down regulated gene) (20 μM CA, 6 hours): −1.58 fold | Fold Change TJP1 (up regulated gene) (20 μM CA, 6 hours): 1.02 fold | Fold Change TPM1-AS (up regulated gene) (20 μM CA, 6 hours): 1.08 fold | Fold Change TRNH (down regulated gene) (20 μM CA, 6 hours): −1.08 fold | Fold Change U2AF1 (up regulated gene) (20 μM CA, 6 hours): 1.40 fold | Fold Change UGT2A3 (up regulated gene) (20 μM CA, 6 hours): 1.83 fold | Fold Change VARS1 (up regulated gene) (20 μM CA, 6 hours): 3.03 fold | Fold Change VPS11 (up regulated gene) (20 μM CA, 6 hours): 1.96 fold | Fold Change YWHAE (down regulated gene) (20 μM CA, 6 hours): −1.84 fold | number of DEGs regulated by CA, total (3 hours post treatment): 109 | number of DEGs, down-regulated (3 hours post treatment): 50 | number of DEGs, up-regulated (3 hours post treatment): 59 | number of DEGs regulated by CA, total (6 hours): 120 | number of DEGs, down-regulated (6 hours): 61 | number of DEGs, up-regulated (6 hours): 59 | number of DEGs regulated by CA, total (12 hours): 164 | number of DEGs, down-regulated (12 hours): 80 | number of DEGs, up-regulated (12 hours): 84 | number of DEGs regulated by CA, total (24 hours): 245 | number of DEGs, down-regulated (24 hours): 112 | number of DEGs, up-regulated (24 hours): 133
